On to `Br.Br.Cc1cc(Oc2ccc3c(c2)cc(C(=O)N2CCN(Cc4cccnc4)CC2)n3C)ncc1NC(=O)c1ccc(C(F)(F)F)cc1` [Example 404, N-{4-Methyl-6-[1-methyl-2-(4-pyridin-3-ylmethylpiperazine-1-carbonyl)-1H-indol-5-yloxy]pyridin-3-yl}-4-trifluoromethyl-benzamide dihydrobromide], for which the melting point (as a rule, the temperature, or range, at which the solid turns liquid) lay in the range of 215 to 217 °C.
For the compound `Br.Cn1c(C(=O)N2CCN(Cc3ccc(OCC(F)F)cc3)CC2)cc2cc(Oc3ccc(NC(=O)c4ccc(Cl)c(Cl)c4)cn3)ccc21` [Example 407, 3,4-Dichloro-N-[6-(2-{4-[4-(2,2-difluoroethoxy)benzyl]piperazine-1-carbonyl}-1-methyl-1H-indol-5-yloxy)pyridin-3-yl]benzamide hydrobromide], the melting point is 241 to 245 °C.
On to `CN(C(=O)c1ccc(C(F)(F)F)cc1)c1ccc(Oc2ccc3c(c2)cc(C(=O)N2CCN(Cc4ccc(OCCF)cc4)CC2)n3C)nc1.O=C(O)/C=C\C(=O)O` [Example 408, N-[6-(2-{4-[4-(2-Fluoroethoxy)benzyl]piperazine-1-carbonyl}-1-methyl-1H-indol-5-yloxy)pyridin-3-yl]-N-methyl-4-trifluoromethyl-benzamide maleate], for which the melting point was 152 to 154 °C.
To `Br.Cn1c(C(=O)N2CCN(Cc3ccc(OCCF)cc3)CC2)cc2cc(Oc3ccc(NC(=O)c4ccc(Cl)c(Cl)c4)cn3)ccc21` [Example 409, 3,4-Dichloro-N-[6-(2-{4-[4-(2-fluoroethoxy)benzyl]piperazine-1-carbonyl}-1-methyl-1H-indol-5-yloxy)pyridin-3-yl]benzamide hydrobromide] belongs 240 to 243 °C; to `CC(C)Oc1ccc(CN2CCN(C(=O)c3cc4cc(Oc5ccc(N(C)C(=O)c6ccc(C(F)(F)F)cc6)cn5)ccc4n3C)CC2)cc1.O=C(O)/C=C\C(=O)O` [Example 410, N-(6-{2-[4-(4-Isopropoxybenzyl)piperazine-1-carbonyl]-1-methyl-1H-indol-5-yloxy}pyridin-3-yl)-N-methyl-4-trifluoromethyl-benzamide maleate], 140 to 142 °C.
In turn, `CCCc1ccc(CN2CCN(C(=O)c3cc4cc(Oc5ccc(N(C)C(=O)c6ccc(C(F)(F)F)cc6)cn5)ccc4n3C)CC2)cc1.O=C(O)/C=C\C(=O)O` [Example 411, N-Methyl-N-(6-{1-methyl-2-[4-(4-propylbenzyl)piperazine-1-carbonyl]-1H-indol-5-yloxy}pyridin-3-yl)-4-trifluoromethyl-benzamide maleate] had a melting point of 132 to 134 °C.
For the compound `CC(C)c1ccc(CN2CCN(C(=O)c3cc4cc(Oc5ccc(N(C)C(=O)c6ccc(C(F)(F)F)cc6)cn5)ccc4n3C)CC2)cc1.O=C(O)/C=C\C(=O)O` [Example 412, N-(6-{2-[4-(4-Isopropylbenzyl)piperazine-1-carbonyl]-1-methyl-1H-indol-5-yloxy}pyridin-3-yl)-N-methyl-4-trifluoromethylbenzamide maleate], the melting point was 129 to 131 °C.
`CCCOc1ccc(CN2CCN(C(=O)c3cc4cc(Oc5ccc(N(C)C(=O)c6ccc(C(F)(F)F)cc6)cn5)ccc4n3C)CC2)cc1.O=C(O)/C=C\C(=O)O` [Example 413, N-Methyl-N-(6-{1-methyl-2-[4-(4-propoxybenzyl)piperazine-1-carbonyl]-1H-indol-5-yloxy}pyridin-3-yl)-4-trifluoromethyl-benzamide maleate]: the melting point lay in the range of 144 to 147 °C.
Turning to `CCCCCCCCOc1ccc(CN2CCN(C(=O)c3cc4cc(Oc5ccc(N(C)C(=O)c6ccc(C(F)(F)F)cc6)cn5)ccc4n3C)CC2)cc1.O=C(O)/C=C\C(=O)O` [Example 414, N-Methyl-N-(6-{1-methyl-2-[4-(4-octyloxybenzyl)piperazine-1-carbonyl]-1H-indol-5-yloxy}pyridin-3-yl)-4-trifluoromethyl-benzamide maleate], the melting point was in the range of 125 to 126 °C.
As to `COCc1ccc(CN2CCN(C(=O)c3cc4cc(Oc5ccc(N(C)C(=O)c6ccc(C(F)(F)F)cc6)cn5)ccc4n3C)CC2)cc1.O=C(O)/C=C\C(=O)O` [Example 415, N-(6-{2-[4-(4-Methoxymethylbenzyl)piperazine-1-carbonyl]-1-methyl-1H-indol-5-yloxy}pyridin-3-yl)-N-methyl-4-trifluoromethyl-benzamide maleate], the melting point fell in the range of 137 to 139 °C.
For `CC(C)Cc1ccc(CN2CCN(C(=O)c3cc4cc(Oc5ccc(N(C)C(=O)c6ccc(C(F)(F)F)cc6)cn5)ccc4n3C)CC2)cc1.O=C(O)/C=C\C(=O)O` [Example 416, N-(6-{2-[4-(4-Isobutylbenzyl)piperazine-1-carbonyl]-1-methyl-1H-indol-5-yloxy}pyridin-3-yl)-N-methyl-4-trifluoromethylbenzamide maleate], the melting point fell in the range of 147 to 149 °C.
As to `Br.CCOc1cccc(CN2CCN(C(=O)c3cc4ccc(Oc5ccc(N(C)C(=O)c6ccc(C(F)(F)F)cc6)cn5)cc4n3C)CC2)c1` [Example 418, N-(6-{2-[4-(3-Ethoxybenzyl)piperazine-1-carbonyl]-1-methyl-1H-indol-6-yloxy}pyridin-3-yl)-N-methyl-4-trifluoromethylbenzamide hydrobromide], the melting point lay in the range of 234 to 236 °C.
`Br.CCOc1ccc(CN2CCN(C(=O)c3cc4ccc(Oc5ccc(N(C)C(=O)c6ccc(C(F)(F)F)cc6)cn5)cc4n3C)CC2)cc1` [Example 419, N-(6-{2-[4-(4-Ethoxybenzyl)piperazine-1-carbonyl]-1-methyl-1H-indol-6-yloxy}pyridin-3-yl)-N-methyl-4-trifluoromethylbenzamide hydrobromide]: the melting point is 241 to 243 °C.
Regarding `Br.CN(C(=O)c1ccc(C(F)(F)F)cc1)c1ccc(Oc2ccc3cc(C(=O)N4CCN(Cc5ccc(OC(F)F)cc5)CC4)n(C)c3c2)nc1` [Example 422, N-(6-{2-[4-(4-Difluoromethoxybenzyl)piperazine-1-carbonyl]-1-methyl-1H-indol-6-yloxy}pyridin-3-yl)-N-methyl-4-trifluoromethyl-benzamide hydrobromide], the melting point lay in the range of 229 to 230 °C.
In turn, `CCOc1ccc(CN2CCN(C(=O)c3cc4cc(Oc5ccc(N(C)C(=O)c6ccc(C(F)(F)F)cc6)cn5)ccc4n3C)CC2)cn1.O=C(O)/C=C\C(=O)O` [Example 423, N-(6-{2-[4-(6-Ethoxypyridin-3-ylmethyl)piperazine-1-carbonyl]-1-methyl-1H-indol-5-yloxy}pyridin-3-yl)-N-methyl-4-trifluoromethyl-benzamide maleate] returned a melting point of 149 to 151 °C.
Turning to `Br.Cc1c(Oc2ccc(N(C)C(=O)c3ccc(C(F)(F)F)cc3)cn2)ccc2c1cc(C(=O)N1CCN(Cc3ccc(C#N)cc3)CC1)n2C` [Example 425, N-(6-{2-[4-(4-Cyanobenzyl)piperazine-1-carbonyl]-1,4-dimethyl-1H-indol-5-yloxy}pyridin-3-yl)-N-methyl-4-trifluoromethylbenzamide hydrobromide], the melting point was in the range of 249 to 252 °C.
Under `COc1ccc(CN2CCN(C(=O)c3cc4c(C)c(Oc5ccc(N(C)C(=O)c6ccc(C(F)(F)F)cc6)cn5)ccc4n3C)CC2)cc1` [Example 426, N-(6-{2-[4-(4-Methoxybenzyl)piperazine-1-carbonyl]-1,4-dimethyl-1H-indol-5-yloxy}pyridin-3-yl)-N-methyl-4-trifluoromethyl-benzamide] stands 184 to 186 °C.
The compound `Br.CCOc1ccc(CN2CCN(C(=O)c3cc4c(C)c(Oc5ccc(N(C)C(=O)c6ccc(C(F)(F)F)cc6)cn5)ccc4n3C)CC2)cc1` [Example 427, N-(6-{2-[4-(4-Ethoxybenzyl)piperazine-1-carbonyl]-1,4-dimethyl-1H-indol-5-yloxy}pyridin-3-yl)-N-methyl-4-trifluoromethyl-benzamide hydrobromide] yielded a melting point of 224 to 226 °C.
For the compound `Br.CC(C)c1ccc(CN2CCN(C(=O)c3cc4ccc(Oc5ccc(N(C)C(=O)c6ccc(C(F)(F)F)cc6)cn5)cc4n3C)CC2)cc1` [Example 429, N-(6-{2-[4-(4-Isopropylbenzyl)piperazine-1-carbonyl]-1-methyl-1H-indol-6-yloxy}pyridin-3-yl)-N-methyl-4-trifluoromethylbenzamide hydrobromide], the melting point was in the range of 255 to 258 °C.
To `Br.CC(C)Cc1ccc(CN2CCN(C(=O)c3cc4ccc(Oc5ccc(N(C)C(=O)c6ccc(C(F)(F)F)cc6)cn5)cc4n3C)CC2)cc1` [Example 430, N-(6-{2-[4-(4-Isobutylbenzyl)piperazine-1-carbonyl]-1-methyl-1H-indol-6-yloxy}pyridin-3-yl)-N-methyl-4-trifluoromethylbenzamide hydrobromide] belongs 262 to 265 °C.
Under `Br.CCCc1ccc(CN2CCN(C(=O)c3cc4ccc(Oc5ccc(N(C)C(=O)c6ccc(C(F)(F)F)cc6)cn5)cc4n3C)CC2)cc1` [Example 431, N-Methyl-N-(6-{1-methyl-2-[4-(4-propylbenzyl)piperazine-1-carbonyl]-1H-indol-6-yloxy}pyridin-3-yl)-4-trifluoromethyl-benzamide hydrobromide] stands 255 to 257 °C; under `Br.Br.CN(C(=O)c1ccc(C(F)(F)F)cc1)c1ccc(Oc2ccc3c(c2)cc(C(=O)N2CCN(Cc4ccc(OCC(F)(F)F)cc4)CC2)n3C)nc1` [Example 432, N-Methyl-N-[6-(1-methyl-2-{4-[4-(2,2,2-trifluoroethoxy)benzyl]-piperazine-1-carbonyl}-1H-indol-5-yloxy)pyridin-3-yl]-4-tri-fluoromethylbenzamide dihydrobromide], 211 to 212 °C.
Consider `COc1ccc(CN2CCN(C(=O)c3cc4cc(Oc5cc(C)c(NC(=O)c6ccc(C(F)(F)F)cc6)cn5)ccc4n3C)CC2)cc1.O=C(O)C(=O)O` [Example 433, N-(6-{2-[4-(4-Methoxybenzyl)piperazine-1-carbonyl]-1-methyl-1H-indol-5-yloxy}-4-methylpyridin-3-yl)-4-trifluoromethylbenzamide oxalate], for which the melting point was in the range of 144 to 147 °C.
The compound `Br.CCCOc1ccc(CN2CCN(C(=O)c3cc4c(C)c(Oc5ccc(N(C)C(=O)c6ccc(C(F)(F)F)cc6)cn5)ccc4n3C)CC2)cc1` [Example 434, N-(6-{1,4-Dimethyl-2-[4-(4-propoxybenzyl)piperazine-1-carbonyl]-1H-indol-5-yloxy}pyridin-3-yl)-N-methyl-4-trifluoromethyl-benzamide hydrobromide] gave a melting point of 204 to 208 °C.

(Values after US8551999B2, “Heterocyclic compound and pharmaceutical composition thereof” (Otsuka Pharmaceutical Co., Ltd., priority 2007, dated 2013).)
